Common to all, as to test: TGFα-shedding assay-based GPCR screening with chimeric Gα subunit proteins
Assay type in all cases: cell-based
Holding throughout (conditions): 10µM, Favipiravir 100μM

In experiment [1] the target is T1, 348 GPCRs (Homo sapiens, UniProt P35414).
T1 sequence (P35414 1-380): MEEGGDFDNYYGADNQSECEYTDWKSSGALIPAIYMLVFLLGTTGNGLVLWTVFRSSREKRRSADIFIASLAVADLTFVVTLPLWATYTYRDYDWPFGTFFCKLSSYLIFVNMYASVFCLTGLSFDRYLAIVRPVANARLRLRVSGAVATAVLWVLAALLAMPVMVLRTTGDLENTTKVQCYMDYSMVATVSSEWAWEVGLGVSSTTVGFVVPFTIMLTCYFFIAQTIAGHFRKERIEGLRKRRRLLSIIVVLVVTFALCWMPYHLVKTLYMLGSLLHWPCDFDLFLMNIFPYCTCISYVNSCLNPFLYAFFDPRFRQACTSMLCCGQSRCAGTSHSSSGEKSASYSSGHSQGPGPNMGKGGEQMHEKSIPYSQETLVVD

The target in experiment [2] is T2, 348 GPCRs (Homo sapiens, UniProt P47893).
T2 construct: expressed in transfected cells; host or cells: HEK293A
T2 sequence (P47893 1-321): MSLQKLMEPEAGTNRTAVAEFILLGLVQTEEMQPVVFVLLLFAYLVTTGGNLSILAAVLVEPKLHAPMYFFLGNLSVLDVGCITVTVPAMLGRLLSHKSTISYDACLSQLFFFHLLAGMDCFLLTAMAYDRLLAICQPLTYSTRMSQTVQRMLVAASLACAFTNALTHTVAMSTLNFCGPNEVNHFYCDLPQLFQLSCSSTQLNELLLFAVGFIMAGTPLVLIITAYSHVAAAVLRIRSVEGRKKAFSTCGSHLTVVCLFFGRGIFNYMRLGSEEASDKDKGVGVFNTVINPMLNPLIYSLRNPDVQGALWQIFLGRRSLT

The target in experiment [3] is T3, 348 GPCRs (Homo sapiens, UniProt P47898).
T3 construct: expressed in transfected cells; host or cells: HEK293A

Experiment [4] has as its target T4, 348 GPCRs (Homo sapiens, UniProt P51810).
T4 construct: expressed in transfected cells; host or cells: HEK293A

Experiment [5] deals with T5, 348 GPCRs (Homo sapiens, UniProt Q6W5P4).
T5 construct: expressed in transfected cells; host or cells: HEK293A
T5 sequence (Q6W5P4 1-371): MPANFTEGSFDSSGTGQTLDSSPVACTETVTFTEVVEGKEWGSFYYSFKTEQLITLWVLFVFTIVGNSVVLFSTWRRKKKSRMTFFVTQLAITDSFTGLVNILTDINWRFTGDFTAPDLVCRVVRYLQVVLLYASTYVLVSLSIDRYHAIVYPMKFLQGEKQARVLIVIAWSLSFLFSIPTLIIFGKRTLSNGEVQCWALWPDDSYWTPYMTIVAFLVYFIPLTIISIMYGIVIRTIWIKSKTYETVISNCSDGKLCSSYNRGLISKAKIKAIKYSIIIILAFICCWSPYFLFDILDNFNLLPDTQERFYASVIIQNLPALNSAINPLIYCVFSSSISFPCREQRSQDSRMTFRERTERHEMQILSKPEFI

The target in experiment [6] is T6, 348 GPCRs (Homo sapiens, UniProt Q86SP6).
T6 construct: expressed in transfected cells; host or cells: HEK293A
T6 sequence (Q86SP6 1-731): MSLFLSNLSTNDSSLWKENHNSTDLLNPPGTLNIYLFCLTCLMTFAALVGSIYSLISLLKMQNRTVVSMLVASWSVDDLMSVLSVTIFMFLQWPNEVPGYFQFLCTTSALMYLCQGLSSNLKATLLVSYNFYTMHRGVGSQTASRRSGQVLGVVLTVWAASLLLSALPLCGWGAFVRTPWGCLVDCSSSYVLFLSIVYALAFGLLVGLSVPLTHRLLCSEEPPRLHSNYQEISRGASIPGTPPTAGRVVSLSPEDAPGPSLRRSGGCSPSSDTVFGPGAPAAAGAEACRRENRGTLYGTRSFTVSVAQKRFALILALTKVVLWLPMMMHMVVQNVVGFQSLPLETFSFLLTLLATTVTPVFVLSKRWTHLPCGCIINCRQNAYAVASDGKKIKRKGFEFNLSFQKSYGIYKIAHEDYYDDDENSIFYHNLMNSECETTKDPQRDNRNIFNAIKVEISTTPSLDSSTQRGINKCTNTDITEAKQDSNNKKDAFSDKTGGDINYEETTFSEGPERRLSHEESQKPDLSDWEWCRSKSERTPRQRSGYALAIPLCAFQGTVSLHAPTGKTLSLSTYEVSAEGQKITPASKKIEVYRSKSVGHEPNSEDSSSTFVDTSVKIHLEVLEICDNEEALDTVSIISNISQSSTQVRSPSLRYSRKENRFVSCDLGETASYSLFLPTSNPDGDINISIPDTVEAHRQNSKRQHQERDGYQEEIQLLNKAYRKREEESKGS

The target in experiment [7] is T7, 348 GPCRs (Homo sapiens, UniProt Q9HC97).
T7 construct: expressed in transfected cells; host or cells: HEK293A

For experiment [8], the target named is T8, 348 GPCRs (Homo sapiens, UniProt Q9UKP6).
T8 construct: expressed in transfected cells; host or cells: HEK293A
T8 sequence (Q9UKP6 1-389): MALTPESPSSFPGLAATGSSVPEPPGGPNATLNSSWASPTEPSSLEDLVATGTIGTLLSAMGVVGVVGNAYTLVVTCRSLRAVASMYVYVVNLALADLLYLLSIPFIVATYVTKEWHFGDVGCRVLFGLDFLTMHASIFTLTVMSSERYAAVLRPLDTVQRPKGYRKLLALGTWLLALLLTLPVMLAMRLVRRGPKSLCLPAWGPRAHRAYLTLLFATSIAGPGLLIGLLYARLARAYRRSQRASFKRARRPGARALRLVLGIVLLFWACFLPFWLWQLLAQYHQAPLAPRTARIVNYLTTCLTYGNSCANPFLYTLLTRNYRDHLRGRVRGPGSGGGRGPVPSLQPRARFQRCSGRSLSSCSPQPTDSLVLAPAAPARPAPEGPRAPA

Setting [9] is: read-out: % GPCR activation compared to TPA, APLNR (apelin receptor).
Setting [10] is: read-out: % GPCR activation compared to TPA, OR3A2 (olfactory receptor, family 3, subfamily A, member 2).
Where [11] appears, read: read-out: % GPCR activation compared to TPA, 5-HT5A (5-hydroxytryptamine receptor 5A).
The mark [12] stands for this setting: read-out: % GPCR activation compared to TPA, GPR143 (G Protein-Coupled Receptor 143).
[13] abbreviates: read-out: % GPCR activation compared to TPA, NPS (neuropeptide S receptor 1).
[14] abbreviates: read-out: % GPCR activation compared to TPA, GPR149 (G protein-coupled receptor 149).
The mark [15] stands for this setting: read-out: % GPCR activation compared to TPA, GPR35 (G protein-coupled receptor 35).
Setting [16] is: read-out: % GPCR activation compared to TPA, UTS2R (urotensin 2 receptor).
The mark [17] stands for this setting: APLNR (apelin receptor), read-out: % GPCR activation compared to TPA.
[18] abbreviates: OR3A2 (olfactory receptor, family 3, subfamily A, member 2), read-out: % GPCR activation compared to TPA.
Where [19] appears, read: 5-HT5A (5-hydroxytryptamine receptor 5A), read-out: % GPCR activation compared to TPA.
[20] abbreviates: GPR143 (G Protein-Coupled Receptor 143), read-out: % GPCR activation compared to TPA.
Where [21] appears, read: NPS (neuropeptide S receptor 1), read-out: % GPCR activation compared to TPA.
The mark [22] stands for this setting: GPR149 (G protein-coupled receptor 149), read-out: % GPCR activation compared to TPA.
The mark [23] stands for this setting: GPR35 (G protein-coupled receptor 35), read-out: % GPCR activation compared to TPA.
Setting [24] is: UTS2R (urotensin 2 receptor), read-out: % GPCR activation compared to TPA.

Like-named read-outs stand apart in the source and are kept apart here.

T3 sequence (P47898 whole entry): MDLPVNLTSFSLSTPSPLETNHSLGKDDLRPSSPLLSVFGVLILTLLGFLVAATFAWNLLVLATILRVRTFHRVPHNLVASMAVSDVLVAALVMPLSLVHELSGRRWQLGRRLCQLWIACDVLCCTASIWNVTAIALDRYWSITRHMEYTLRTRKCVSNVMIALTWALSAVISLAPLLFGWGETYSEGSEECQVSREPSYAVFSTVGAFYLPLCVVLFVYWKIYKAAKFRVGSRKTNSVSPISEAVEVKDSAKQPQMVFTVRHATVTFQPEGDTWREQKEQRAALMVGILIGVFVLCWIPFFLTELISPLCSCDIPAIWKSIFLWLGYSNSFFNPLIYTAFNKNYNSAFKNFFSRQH
T7 sequence (Q9HC97 whole entry): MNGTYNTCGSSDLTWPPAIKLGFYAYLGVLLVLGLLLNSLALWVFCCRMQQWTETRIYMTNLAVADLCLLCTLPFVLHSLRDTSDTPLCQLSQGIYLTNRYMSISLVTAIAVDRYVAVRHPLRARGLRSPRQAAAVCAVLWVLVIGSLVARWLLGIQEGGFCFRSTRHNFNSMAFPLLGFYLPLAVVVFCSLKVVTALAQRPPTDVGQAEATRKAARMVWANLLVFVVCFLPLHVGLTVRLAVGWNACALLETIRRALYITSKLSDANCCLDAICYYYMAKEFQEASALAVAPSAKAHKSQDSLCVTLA
T4 sequence (P51810 whole entry): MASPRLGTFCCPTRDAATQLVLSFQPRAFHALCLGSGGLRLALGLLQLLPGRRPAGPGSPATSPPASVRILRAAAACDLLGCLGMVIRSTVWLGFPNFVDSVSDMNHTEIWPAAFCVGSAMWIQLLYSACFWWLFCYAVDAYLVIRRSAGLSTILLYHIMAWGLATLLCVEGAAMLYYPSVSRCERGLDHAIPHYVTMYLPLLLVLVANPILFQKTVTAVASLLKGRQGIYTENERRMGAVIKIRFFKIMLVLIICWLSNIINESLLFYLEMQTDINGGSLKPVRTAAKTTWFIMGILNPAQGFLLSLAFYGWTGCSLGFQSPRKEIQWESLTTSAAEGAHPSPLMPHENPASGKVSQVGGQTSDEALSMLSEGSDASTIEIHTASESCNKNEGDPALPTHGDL

`CC(C)OC(=O)[C@H](C)N[P@](=O)(OC[C@H]1O[C@@H](n2ccc(=O)[nH]c2=O)[C@](C)(F)[C@@H]1O)Oc1ccccc1` [sofosbuvir]: the activation at 10 µM on 348 GPCRs [1] (setting [9]) is -5.57%; at 348 GPCRs [2] (setting [10]), -1.07%; on 348 GPCRs [5] (setting [13]), 0.112%; at 348 GPCRs [7] (setting [15]) it was -7.86%; on 348 GPCRs [8] (setting [16]), -2.85%. Moreover, the activation at 100 µM on 348 GPCRs [3] (setting [11]) was -0.524%; at 348 GPCRs [4] (setting [12]) it was -1.1%; on 348 GPCRs [6] (setting [14]) it was -7.06%.
Regarding `NC(=O)c1nc(F)cnc1O` [favipiravir, 6-fluoro-3-hydroxy-2-pyrazinecarboxamide], the activation at 10 µM at 348 GPCRs [1] (setting [17]) was -2.25%; at 348 GPCRs [2] (setting [18]) it was -0.0334%; at 348 GPCRs [5] (setting [21]), -0.693%; at 348 GPCRs [7] (setting [23]), 3%; on 348 GPCRs [8] (setting [24]), -4.11%. Besides, the activation at 100 µM at 348 GPCRs [3] (setting [19]) was -2.45%; on 348 GPCRs [4] (setting [20]) it was -1.86%; on 348 GPCRs [6] (setting [22]), 0.0439%.
On to `CCC(CC)COC(=O)[C@H](C)N[P@](=O)(OC[C@H]1O[C@@](C#N)(c2ccc3c(N)ncnn23)[C@H](O)[C@@H]1O)Oc1ccccc1` [remdesivir], for which the activation at 10 µM was 3.68% on 348 GPCRs [1] (setting [9]); -3.15% at 348 GPCRs [2] (setting [10]); -0.795% at 348 GPCRs [5] (setting [13]); 0.537% on 348 GPCRs [7] (setting [15]); 46.9% on 348 GPCRs [8] (setting [16]). Also, the values for the activation at 100 µM at 348 GPCRs [3] (setting [11]), at 348 GPCRs [4] (setting [12]) and at 348 GPCRs [6] (setting [14]) were -0.876%, -0.638% and -0.636%, respectively.
For `N#C[C@@]1(c2ccc3c(N)ncnn23)O[C@H](CO)[C@@H](O)[C@H]1O` [GS441524], the activation at 10 µM at 348 GPCRs [1] (setting [17]) was -3.07%; at 348 GPCRs [2] (setting [18]), -9.89%; on 348 GPCRs [5] (setting [21]), -1.43%; on 348 GPCRs [7] (setting [23]), 4.18%; at 348 GPCRs [8] (setting [24]), -11.4%. Further, the results for the activation at 100 µM on 348 GPCRs [3] (setting [19]), on 348 GPCRs [4] (setting [20]) and at 348 GPCRs [6] (setting [22]) were -3.98%, -1.65% and -0.814%, respectively.
Take `CC(C)C(=O)OC[C@H]1O[C@@H](n2ccc(NO)nc2=O)[C@H](O)[C@@H]1O` [molnupiravir]: the activation at 10 µM was -5.92% at 348 GPCRs [1] (setting [17]); -0.408% at 348 GPCRs [2] (setting [18]); -0.116% on 348 GPCRs [5] (setting [21]); -3.01% on 348 GPCRs [7] (setting [23]); -8.44% on 348 GPCRs [8] (setting [24]). The activation at 100 µM at 348 GPCRs [3] (setting [19]) was -1.01%; on 348 GPCRs [4] (setting [20]) it was -2.51%; on 348 GPCRs [6] (setting [22]), -41.7%.

The record behind these values is publication PMC10175918 (Communications Biology, 2023).
